From the supplement of paper PMC8617591

Experiments:
[1] = system: Mycobacterium tuberculosis Erdman (autoluminescent); test: GRinf, maximum normalised growth rate inhibition (three-drug combination) (unitless (-1 to 1)); higher = less effect (negative = killing)
Method: (§1)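 DiaMOND equipotent three-drug combination dose responses (10 doses, 1.5- or 2-fold spacing, centred on IC90) against autoluminescent M. tuberculosis Erdman in 8 in vitro models. Read-out is OD600, or luminescence for the intracellular and dormancy models, normalised to untreated wells. Hill-fit Einf, AUC25 and GRinf are potency metrics; FIC50 and FIC90 are total Loewe fractional inhibitory concentrations as log2 (negative = synergy).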

[2] = system: Mycobacterium tuberculosis Erdman (autoluminescent); test: total FIC50 (Loewe) at 50% inhibition, three-drug combination (log2); higher = more antagonistic
Method: as §1

[3] = system: Mycobacterium tuberculosis Erdman (autoluminescent); test: Einf, fitted maximum growth inhibition of three-drug combination (fraction); higher = stronger maximal inhibition
Method: as §1

[4] = system: Mycobacterium tuberculosis Erdman (autoluminescent); test: AUC25, normalised area under dose response up to IC25 (three-drug combination) (fraction (0-1)); higher = more potent at low dose
Method: as §1

[5] = system: Mycobacterium tuberculosis Erdman (autoluminescent); test: total FIC90 (Loewe) at 90% inhibition, three-drug combination (log2); higher = more antagonistic
Method: as §1

COc1nc2ccc(Br)cc2cc1[C@@H](c1ccccc1)[C@@](O)(CCN(C)C)c1cccc2ccccc12 [bedaquiline] + COc1c(N2C[C@@H]3CCCN[C@@H]3C2)c(F)cc2c(=O)c(C(=O)O)cn(C3CC3)c12 [moxifloxacin] + O=[N+]([O-])c1cn2c(n1)OC[C@@H](OCc1ccc(OC(F)(F)F)cc1)C2 [pretomanid]
Conditions	AUC25, [4]	Einf, [3]	GRinf, [1]	total FIC50, [2]	total FIC90, [5]
in vitro model: acidic pH 5.7, time point: constant (~7 days, model-specific)	0.1	0.838	-0.377	0.596	–
in vitro model: acidic pH 5.7, time point: terminal (~4-5 doublings, model-specific)	0.0692	0.971	-0.329	0.946	0.743
in vitro model: intracellular J774, time point: constant = terminal	–	0.972	-0.42	–	0.518

Conditions	AUC25, [4]	Einf, [3]	GRinf, [1]	total FIC50, [2]	total FIC90, [5]
in vitro model: butyrate, time point: constant (~7 days, model-specific)	0.11	0.974	-0.202	0.96	1.4
in vitro model: butyrate, time point: terminal (~4-5 doublings, model-specific)	0.0807	0.979	-0.386	1.02	1.52
in vitro model: cholesterol 0.05 mM, time point: constant (~7 days, model-specific)	0.102	0.689	-0.187	0.771	–
in vitro model: cholesterol 0.05 mM, time point: terminal (~4-5 doublings, model-specific)	0.0953	0.946	-0.21	0.672	0.565
in vitro model: cholesterol-high 0.2 mM, time point: constant (~7 days, model-specific)	0.0866	0.945	-0.309	0.743	1.24
in vitro model: cholesterol-high 0.2 mM, time point: terminal (~4-5 doublings, model-specific)	0.082	1	-0.571	0.598	0.93
in vitro model: dormancy (butyrate + nitrate, low O2), time point: constant (~7 days, model-specific)	0.0412	0.905	0.272	0.0257	-0.733
in vitro model: dormancy (butyrate + nitrate, low O2), time point: terminal (~4-5 doublings, model-specific)	0.0577	0.995	-0.1	0.157	0.118
in vitro model: standard 7H9 glycerol, time point: constant = terminal	0.08	0.98	-0.122	-0.0856	-0.137
in vitro model: valerate, time point: constant (~7 days, model-specific)	0.123	0.932	-0.393	0.261	–
in vitro model: valerate, time point: terminal (~4-5 doublings, model-specific)	0.0843	0.956	-0.165	0.431	0.866
